# From patent US20210330611A1, “THERAPY FOR NEUROLOGICAL DISEASES/DISORDERS” (priority 2020, published 2021)
# Where a name gives a salt, the structure may show the parent alone. Read-outs that look alike come from different tables or passages of the source.
# Experiments:
# [1] = tested on: fibrin- and LPS-induced microglia activation; test: cells; type: cell-based, rat
# [2] = tested on: fibrin-induced microglia activation; test: Image-based assay of fibrin-induced microglia activation (HTS and dose response); type: cell-based, rat; conditions: for inhibition at 10 µM: Rattus norvegicus, Microglia, read-out: Fibrin % inhibition
# [3] = tested on: primary rat microglia;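 on Fibrin % cell toxicity: share of dead cells sized under 150 µm2 at 10 µM in fibrin-stimulated microglia HTS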
# [4] = tested on: LPS-induced microglia activation; test: Image-based assay of LPS-induced microglia activation (HTS and dose response); type: cell-based, rat
# [5] = tested on: primary rat microglia; remark: listed apart in the source;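 on Fibrin % cell toxicity: share of dead cells sized under 150 µm2 at 10 µM in fibrin-stimulated microglia HTS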
# [6] = HTS of 1907 compounds, quadrant by fibrin and LPS inhibition
# [7] = primary microglia HTS, 10 μM, fibrin-stimulated, cell size >800 μm^2 as marker of activation
# [8] = Rattus norvegicus, Microglia, primary microglia HTS, 10 μM, LPS-stimulated, cell size >800 μm^2 as marker of activation; read-out: LPS % inhibition
# [9] = Rattus norvegicus, Microglia, read-out: LPS % inhibition
# [10] = classification by fibrin and LPS inhibition in HTS
# [11] = primary microglia HTS, fibrin stimulation, cell size >800 μm2 as marker of activation
# [12] = Rattus norvegicus, Microglia, 48 h; read-out: LPS % inhibition
# [13] = quadrant by fibrin and LPS inhibition in HTS of 1907 compounds
# [14] = primary microglia HTS, fibrin stimulation, increased cell size (>800 μm^2) as marker of activation
# [15] = Rattus norvegicus, Microglia, 48 h, primary microglia HTS, LPS stimulation; increased cell size (>800 μm^2) as marker of activation; read-out: LPS % inhibition
# [16] = classification by fibrin and LPS inhibition, HTS at 10 μM
# [17] = Rattus norvegicus, Microglia, primary microglia HTS, LPS stimulation, compounds at 10 μM; read-out: LPS % inhibition
compound,measurement,setting,value
Clc1ccc(Nc2nnc(Cc3ccncc3)c3ccccc23)cc1 [Vatalanib],Quadrant (FIG. 5b),[1]; [6],Q4
same,inhibition at 10 µM,[2]; [7],-26%
same,LPS % cell toxicity,[3]; rat,0%
same,inhibition at 10 µM,[4]; [8],-3%
same,Fibrin % cell toxicity,[5]; rat,1%
CC[C@@H](c1cccc(O)c1)[C@@H](C)CN(C)C [Tapentadol Hydrochloride],Quadrant (FIG. 5b),[1]; [6],Q4
same,inhibition at 10 µM,[2]; [7],-12%
same,LPS % cell toxicity,[3]; rat,0%
same,inhibition at 10 µM,[4]; [8],12%
same,Fibrin % cell toxicity,[5]; rat,1%
O=C(O)CCC(=O)OC[C@@H](NC(=O)C(Cl)Cl)[C@H](O)c1ccc([N+](=O)[O-])cc1 [CHLOR[…]],Quadrant (FIG. 5b),[1],Q4
same,inhibition at 10 µM,[2],24%
same,LPS % cell toxicity,[3]; rat,1%
same,inhibition at 10 µM,[4]; [9],14%
same,Fibrin % cell toxicity,[5]; rat,2%
CO[C@H]1/C=C/O[C@@]2(C)Oc3c(C)c(O)c4c(c3C2=O)C2=NC3(CCN(CC(C)C)CC3)NC2=C(NC(=O)/C(C)=C\C=C\[C@H](C)[C@H](O)[C@@H](C)[C@@H](O)[C@@H](C)[C@H](OC(C)=O)[C@@H]1C)C4=O [Rifabutin],Quadrant (FIG. 5b),[1]; [10],Q4
same,inhibition at 10 µM,[2]; [11],-51%
same,LPS % cell toxicity,[3]; rat,0%
same,inhibition at 10 µM,[4]; [12],2%
same,Fibrin % cell toxicity,[5]; rat,0%
O=C(O)CC(O)(CC(=O)O)C(=O)O [Citric Acid],Quadrant (FIG. 5b),[1],Q4
same,inhibition at 10 µM,[2],-36%
same,LPS % cell toxicity,[3]; rat,0%
same,inhibition at 10 µM,[4]; [9],-6%
same,Fibrin % cell toxicity,[5]; rat,1%
CC(C)(C)NC[C@H](O)COc1ccccc1C1CCCC1 [Penbutolol],Quadrant (FIG. 5b),[1]; [10],Q4
same,inhibition at 10 µM,[2]; [11],-8%
same,LPS % cell toxicity,[3]; rat,0%
same,inhibition at 10 µM,[4]; [12],17%
same,Fibrin % cell toxicity,[5]; rat,1%
COc1c2occc2cc2ccc(=O)oc12 [Methoxsalen],Quadrant (FIG. 5b),[1]; [13],Q4
same,inhibition at 10 µM,[2]; [14],-31%
same,LPS % cell toxicity,[3]; rat,0%
same,inhibition at 10 µM,[4]; [15],14%
same,Fibrin % cell toxicity,[5]; rat,0%
Prednisolone sodium phosphate [reference compound],Cherry-picked Hit (Suppl. Table 7),[1],HIT (key: HIT: Hits were defined as molecules that exhibited greater than 50% inhibition of either fibrin or LPS activation)
same,Hit,[1],HIT (key: HIT: Hits were defined as molecules that exhibited greater than 50% inhibition of either fibrin or LPS activation)
same,Quadrant (FIG. 5b),[1],Q2
same,Fibrin % inhibition,[2],108%
same,IC50,[2]; read-out: Fibrin IC50,0.1 µM
same,IC50,[2]; read-out: Fibrin IC50 (uM) (Suppl. Table 7),0.1 µM
same,IC50,[3],> 20 µM
same,LPS % cell toxicity,[3],3%
same,LPS % inhibition,[4],96%
same,IC50,[4]; read-out: LPS IC50,4 µM
same,IC50,[4]; read-out: LPS IC50 (uM) (Suppl. Table 7),4 µM
same,Fibrin % cell toxicity,[5],3%
same,IC50,[5],> 20 µM
CNC(=O)c1cc(Oc2ccc(NC(=O)Nc3ccc(Cl)c(C(F)(F)F)c3)cc2)ccn1 [Sorafenib],Quadrant (FIG. 5b),[1]; [10],Q4
same,inhibition at 10 µM,[2]; [11],-67%
same,LPS % cell toxicity,[3]; rat,1%
same,inhibition at 10 µM,[4]; [12],35%
same,Fibrin % cell toxicity,[5]; rat,1%
Cc1c(O)c(=O)ccn1C [Deferiprone],Quadrant (FIG. 5b),[1]; [16],Q4
same,inhibition at 10 µM,"[2]; primary microglia HTS, fibrin stimulation, compounds at 10 μM",31%
same,LPS % cell toxicity,[3]; rat,0%
same,inhibition at 10 µM,[4]; [17],18%
same,Fibrin % cell toxicity,[5]; rat,1%
COc1ccc([C@@H]2Sc3ccccc3N(CCN(C)C)C(=O)[C@@H]2OC(C)=O)cc1 [Diltiazem],Quadrant (FIG. 5b),[1]; [16],Q4
same,Fibrin % inhibition,"[2]; primary microglia HTS, fibrin stimulation, compounds at 10 μM, 10 µM",21%
same,LPS % cell toxicity,[3]; rat,0%
same,inhibition at 10 µM,[4]; [17],9%
same,Fibrin % cell toxicity,[5]; rat,1%
OC(c1cc(C(F)(F)F)nc2c(C(F)(F)F)cccc12)C1CCCCN1 (stereo not drawn) [Mefloquine],Quadrant (FIG. 5b),[1]; [13],Q4
same,inhibition at 10 µM,[2]; [14],-18%
same,LPS % cell toxicity,[3]; rat,0%
same,inhibition at 10 µM,[4]; [15],13%
same,Fibrin % cell toxicity,[5]; rat,1%
COc1ccc(CC(C)NCC(O)c2ccc(O)c(NC=O)c2)cc1 (stereo not drawn) [Formoterol],Quadrant (FIG. 5b),[1],Q4
same,inhibition at 10 µM,[2],-6%
same,LPS % cell toxicity,[3]; rat,1%
same,inhibition at 10 µM,"[4]; Rattus norvegicus, Microglia, 48 h, read-out: LPS % inhibition",32%
same,Fibrin % cell toxicity,[5]; rat,1%
CCN(CC)CCCC(C)Nc1ccnc2cc(Cl)ccc12 (stereo not drawn) [Chloroquine],Quadrant (FIG. 5b),[1],Q4
same,inhibition at 10 µM,[2],2%
same,LPS % cell toxicity,[3]; rat,0%
same,inhibition at 10 µM,[4]; [9],7%
same,Fibrin % cell toxicity,[5]; rat,0%
